Assay results taken from patent US11578073B2, “Xanthine analogs as potent anti-West Nile viral agents” (Southern Research Institute, priority 2019, dated 2023).

What was measured:
West Nile virus = experiment: anti-West Nile virus activity of xanthine analogs in HEK293 cells; assay type: cell-based; settings: HEK293, read-out: EC90 (effective concentration to inhibit 90% of virus)
[1] = cell viability assay (cytotoxicity) in HEK293 cells; assay type: cell-based; settings: human, read-out: CC50 (50% cytotoxicity concentration)

COC(=O)c1ccc(Cn2c(N3CCN(Cc4ccc(C(C)(C)C)cc4)CC3)nc3c2c(=O)[nH]c(=O)n3C)c(F)c1 [Compound 18, methyl 4-((8-(4-(4-(tert-butyl)benzyl)piperazin-1-yl)-3-methyl-2,6-dioxo-1,2,3,6-tetrahydro-7H-purin-7-yl)methyl)-3-fluorobenzoate]
EC90 (West Nile virus): 5.2 µM
CC50 [1]: 21.4 µM

Cc1ccc(C)c(CN2CCN(c3nc4c(c(=O)n(C)c(=O)n4C)n3Cc3ccccc3F)CC2)c1 [Compound 2, 8-(4-(2,5-dimethylbenzyl)piperazin-1-yl)-7-(2-fluorobenzyl)-1,3-dimethyl-3,7-dihydro-1H-purine-2,6-dione]
EC90 (West Nile virus): 1.1 µM
CC50 [1]: > 40 µM

CC(C)(C)c1ccc(CN2CCN(c3nc4[nH]c(=O)[nH]c(=O)c4n3Cc3ccccc3F)CC2)cc1 [Compound 64, 8-(4-(4-(tert-butyl)benzyl)piperazin-1-yl)-7-(2-fluorobenzyl)-3,7-dihydro-1H-purine-2,6-dione]
EC90 (West Nile virus): 9 µM
CC50 [1]: 10 µM

Cc1ccc(C)c(CN2CCN(c3nc4c(c(=O)[nH]c(=O)n4C)n3Cc3ccccc3F)CC2)c1 [Compound 1, 8-(4-(2,5-dimethylbenzyl)piperazin-1-yl)-7-(2-fluorobenzyl)-3-methyl-3,7-dihydro-1H-purine-2,6-dione]
EC90 (West Nile virus): 1.2 µM
CC50 [1]: 12 µM

CC(C)c1ccc(CN2CCN(c3nc4c(c(=O)[nH]c(=O)n4C)n3Cc3ccccc3F)CC2)cc1 [Compound 41, 7-(2-Fluorobenzyl)-8-(4-(4-isopropylbenzyl)piperazin-1-yl)-3-methyl-3,7-dihydro-1H-purine-2,6-dione]
EC90 (West Nile virus): 1.1 µM
CC50 [1]: 24 µM

Cn1c(=O)[nH]c(=O)c2c1nc(N1CCN(Cc3ccc(C(C)(C)C)nc3)CC1)n2Cc1ccccc1F [Compound 38, 8-(4-((6-(tert-Butyl)pyridin-3-yl)methyl)piperazin-1-yl)-7-(2-fluorobenzyl)-3-methyl-3,7-dihydro-1H-purine-2,6-dione]
EC90 (West Nile virus): 16 µM
CC50 [1]: 34.2 µM

Cn1c(=O)[nH]c(=O)c2c1nc(N1CCN(Cc3ccc(F)cc3)CC1)n2Cc1ccccc1F [Compound 35, 7-(2-Fluorobenzyl)-8-(4-(4-fluorobenzyl)piperazin-1-yl)-3-methyl-3,7-dihydro-1H-purine-2,6-dione]
EC90 (West Nile virus): 10.5 µM
CC50 [1]: > 30 µM

Cn1c(=O)[nH]c(=O)c2c1nc(N1CCN(Cc3ccc(C(C)(C)C)cc3)C(C(=O)O)C1)n2Cc1ccccc1F (stereo not drawn) [Compound 37, 1-(4-(tert-butyl)benzyl)-4-(7-(2-fluorobenzyl)-3-methyl-2,6-dioxo-2,3,6,7-tetrahydro-1H-purin-8-yl)piperazine-2-carboxylic Acid]
EC90 (West Nile virus): > 10 µM
CC50 [1]: > 40 µM

Cn1c(=O)[nH]c(=O)c2c1nc(N1CCN(Cc3ccc(C(F)(F)F)cc3)CC1)n2Cc1ccccc1F [Compound 34, 7-(2-Fluorobenzyl)-3-methyl-8-(4-(4-(trifluoromethyl)benzyl)piperazin-1-yl)-3,7-dihydro-1H-purine-2,6-dione]
EC90 (West Nile virus): 9.4 µM
CC50 [1]: > 30 µM

Cc1ccc(C)c(CN2CCN(c3nc4c([nH]3)c(=O)n(Cc3ccccc3F)c(=O)n4C)CC2)c1 [Compound 3, 8-(4-(2,5-dimethylbenzyl)piperazin-1-yl)-1-(2-fluorobenzyl)-3-methyl-3,7-dihydro-1H-purine-2,6-dione]
EC90 (West Nile virus): > 10 µM
CC50 [1]: > 40 µM

Cn1c(=O)[nH]c(=O)c2c1nc(N1CCN(Cc3ccc(C(C)(C)O)cc3)CC1)n2Cc1ccccc1F [Compound 40, 7-(2-fluorobenzyl)-8-(4-(4-(2-hydroxypropan-2-yl)benzyl)piperazin-1-yl)-3-methyl-3,7-dihydro-1H-purine-2,6-dione]
EC90 (West Nile virus): > 10 µM
CC50 [1]: > 40 µM

Cn1c(=O)[nH]c(=O)c2c1nc(N1CCN(c3cccc(C(C)(C)C)c3)CC1)n2Cc1ccccc1F [Compound 28, 8-(4-(3-(tert-butyl)phenyl)piperazin-1-yl)-7-(2-fluorobenzyl)-3-methyl-3,7-dihydro-1H-purine-2,6-dione]
EC90 (West Nile virus): 10 µM
CC50 [1]: > 40 µM
